Laboratory results: patent publication US7432283B2, “Heterocyclic GABAA subtype selective receptor modulators” (Roche Palo Alto LLC, priority 2004, dated 2008)

Row | Structure (SMILES) | melting point [°C]
1 | Cn1nc2c(c1Br)CCCN2c1ccc(Cl)cc1 [Compound 1-8, 3-Bromo-2-methyl-7-(4-chloro-phenyl)-4,5,6,7-tetrahydro-2H-pyrazolo[3,4-b]pyridine] | 113.8 to 114.9
2 | Cn1nc2c(c1C(=O)c1ccccn1)CCCN2c1ccc(Cl)cc1Cl [Compound 6-1, [7-(2,4-Dichloro-phenyl)-2-methyl-4,5,6,7-tetrahydro-2H-pyrazolo[3,4-b]pyridin-2-yl]-methanone] | 142.1 to 149.2
3 | Cc1cc(C)c(N2CCCc3c2nn(C)c3C(C)(C)O)c(C)c1 [Compound 2-16, 2-[7-(2,4,6-trimethyl-phenyl)-2-methyl-4,5,6,7-tetrahydro-2H-pyrazolo[3,4-b]pyridin-3-yl]-propan-2-ol] | 158.9 to 161.6
4 | CCCC(O)(CCC)c1c2c(nn1C)N(c1c(C)cc(C)cc1C)CCCC2 [Compound 2-4, 4-[2-Methyl-8-(2,4,6-trimethylphenyl)-2,4,5,6,7,8-hexahydro-1,2,8-triazaazulen-3-yl]heptan-4-ol] | 87 to 91.1
5 | CCCC(O)(c1cccs1)c1c2c(nn1C)N(c1c(C)cc(C)cc1C)CCC2 (centres unmarked) [Compound 2-3, 1-[2-Methyl-7-(2,4,6-trimethylphenyl)-4,5,6,7-tetrahydro-2H-pyrazolo[3,4-b]pyridin-3-yl]-1-thiophen-2-ylbutan-1-ol] | 175.9 to 178.4
6 | Cn1[nH]c2c(c1=O)CCCN2c1ccc(Cl)cc1Cl [Compound 1-16, 7-(2,4-dichloro-phenyl)-2-methyl-1,2,4,5,6,7-hexahydro-pyrazolo[3,4-b]pyridin-3-one] | 98 to 100.5
7 | Cc1cc(C)c(N2CCCc3c2nn(C)c3C(O)c2ccco2)c(C)c1 (centres unmarked) [Compound 2-9, Furan-2-yl[2-methyl-7-(2,4,6-trimethyl-phenyl)-4,5,6,7-tetrahydro-2H-pyrazolo[3,4-b]pyridin-3-yl]methanol] | 163.1 to 174.4
8 | CCC(O)c1c2c(nn1C)N(c1c(C)cc(C)cc1C)CCC2 (centres unmarked) [Compound 2-10, 1-[2-Methyl-7-(2,4,6-trimethylphenyl)-4,5,6,7-tetrahydro-2H-pyrazolo[3,4-b]pyridin-3-yl]propan-1-ol] | 179.4 to 180.9
9 | Cc1cc(C)c(N2CCCc3c2nn(C)c3C(=O)O)c(C)c1 [Compound 5-2, 7-(2,4,6-Trimethylphenyl)-2-methyl-4,5,6,7-tetrahydro-2H-pyrazolo[3,4-b]pyridine-3-carboxylic acid] | 228.6 to 233.9
10 | Cc1cc(C)c(N2CCCc3c2nn(C)c3C(C)O)c(C)c1 (centres unmarked) [Compound 2-15, 1-[7-(2,4,6-trimethyl-phenyl)-2-methyl-4,5,6,7-tetrahydro-2H-pyrazolo[3,4-b]pyridin-3-yl]-ethanol] | 178 to 179.6
11 | Cc1cc(C)c(N2CCCc3c2nn(C)c3C(=O)N2CCc3ccccc3C2)c(C)c1 [Compound 7-2, (3,4-Dihydro-1H-isoquinolin-2-yl)-[2-methyl-7-(2,4,6-trimethyl-phenyl)-4,5,6,7-tetrahydro-2H-pyrazolo[3,4-b]pyridin-3-yl]-methanone] | 80.3 to 87.7
12 | Cn1nc2c(c1-c1cncnc1)CCCN2c1ccc(Cl)cc1Cl [Compound 9-2, 7-(2,4-Dichloro-phenyl)-2-methyl-3-pyrimidin-5-yl-4,5,6,7-tetrahydro-2H-pyrazolo[3,4-b]pyridine] | 164.2 to 166.8
13 | Cc1cc(C)c(N2CCCc3c2nn(C)c3C2(O)CCOCC2)c(C)c1 [Compound 2-12, 4-[2-Methyl-7-(2,4,6-trimethylphenyl)-4,5,6,7-tetrahydro-2H-pyrazolo[3,4-b]pyridin-3-yl]tetrahydropyran-4-ol] | 193 to 195.1
14 | Cn1nc2c(c1-c1ccncc1)CCCN2c1ccc(Cl)cc1Cl [Compound 9-3, 7-(2,4-Dichloro-phenyl)-2-methyl-3-pyridin-4-yl-4,5,6,7-tetrahydro-2H-pyrazolo[3,4-b]pyridine] | 123.5 to 125.5
15 | Cc1cc(C)c(N2CCCc3c2nn(C)c3C(=O)O)c(Cl)c1 [Compound 5-1, 7-(2-Chloro-4,6-dimethylphenyl)-2-methyl-4,5,6,7-tetrahydro-2H-pyrazolo[3,4-b]pyridine-3-carboxylic acid] | 247.8 to 248.3
16 | C=Cc1c2c(nn1C)N(c1c(C)cc(C)cc1C)CCC2 [Compound 3-8, 2-methyl-7-(2,4,6-trimethyl-phenyl)-3-vinyl-4,5,6,7-tetrahydro-2H-pyrazolo[3,4-b]pyridine] | 64.4 to 67.6
17 | CCC(=O)Nc1c2c(nn1C)N(c1c(C)cc(C)cc1C)CCC2 [Compound 7-3, N-[2-Methyl-7-(2,4,6-trimethylphenyl)-4,5,6,7-tetrahydro-2H-pyrazolo[3,4-b]pyridin-3-yl]propionamide] | 226 to 228
18 | Cn1[nH]c2c(c1=O)CCCN2c1ccc(Cl)cc1 [Compound 1-17, 7-(4-chloro-phenyl)-2-methyl-1,2,4,5,6,7-hexahydro-pyrazolo[3,4-b]pyridin-3-one] | 219.5 to 221.6
19 | CC/C=C(\CCC)c1c2c(nn1C)N(c1c(C)cc(C)cc1C)CCCC2 [Compound 3-4, 2-Methyl-3-(1-propylbut-1-enyl)-8-(2,4,6-trimethylphenyl)-2,4,5,6,7,8-hexahydro-1,2,8-triazaazulene] | 101.9 to 103.9
20 | CC/C=C(\CCC)c1c2c(nn1C)N(c1c(C)cc(C)cc1C)CCC2 [Compound 3-2, 2-Methyl-3-(1-propylbut-1-enyl)-7-(2,4,6-trimethylphenyl)-4,5,6,7-tetrahydro-2H-pyrazolo[3,4-b]pyridine] | 101.6 to 102.6
21 | CCCC(O)(CCC)c1c2c(nn1C)N(c1ccc(Cl)cc1Cl)CCC2 [Compound 2-5, 4-[7-(2,4-Dichlorophenyl)-2-methyl-4,5,6,7-tetrahydro-2H-pyrazolo [3,4-b]pyridin-3-yl]heptan-4-ol] | 121.4 to 122.6
22 | CCCC(O)(c1nccs1)c1c2c(nn1C)N(c1c(C)cc(C)cc1C)CCC2 (centres unmarked) [Compound 2-8, 1-[2-Methyl-7-(2,4,6-trimethylphenyl)-4,5,6,7-tetrahydro-2H-pyrazolo[3,4-b]pyridin-3-yl]-1-thiazol-2-ylbutan-1-ol] | 160.1 to 165.6
23 | Cc1cc(C)c(N2CCCc3c2nn(C)c3-c2ccccc2C(F)(F)F)c(C)c1 [Compound 9-1, 2-Methyl-3-(2-trifluoromethyl-phenyl)-7-(2,4,6-trimethyl-phenyl)-4,5,6,7-tetrahydro-2H-pyrazolo[3,4-b]pyridine] | 59 to 63
24 | C=Cc1c2c(nn1C)N(c1ccc(Cl)cc1Cl)CCC2 [Compound 3-7, 7-(2,4-Dichloro-phenyl)-2-methyl-3-vinyl-4,5,6,7-tetrahydro-2H-pyrazolo[3,4-b]pyridine] | 99.6 to 100.6
25 | Cc1cc(C)c(N2CCCc3c2nn(C)c3Br)c(Cl)c1 [Compound 1-1, 3-Bromo-7-(2-chloro-4,6-dimethylphenyl)-2-methyl-4,5,6,7-tetrahydro-2H-pyrazolo[3,4-b]pyridine] | 106 to 107
26 | CO/N=C(\C)c1c2c(nn1C)N(c1c(C)cc(C)cc1C)CCC2 [Compound 6-4, 1-[2-Methyl-7-(2,4,6-trimethyl-phenyl)-4,5,6,7-tetrahydro-2H-pyrazolo[3,4-b]pyridin-3-yl]-ethanone O-methyl-oxime] | 104.2 to 106.4
